This note sets out measurements from patent US20230165865A1, “HETEROARYLDIHYDROPYRIMIDINE DERIVATIVES AND METHODS OF TREATING HEPATITIS B INFECTIONS” (Janssen Pharmaceutica NV, priority 2018, published 2023).

Read-outs that look alike come from different tables or passages of the source.

The nature of series [1]: Cytotoxicity determination in HepG2.2.15 cells (CCK-8 assay). In kind it is cell-based. The note with it: human, 6 days treatment, CCK-8, highest concentration 100 uM. The method, then: (§1) HepG2.2.15 (the HepG2.2.15 cell line can be produced by transfection of the HepG2 cell line as described in Sells, Chen, and Acs 1987 (Proc. Natl. Acad. Sci. USA 84: 1005-1009), and the HepG2 cell line is available from ATCC® under number HB-8065™)
(§2) HepG2.2.15 cells were plated into 96-well plate in 2% FBS culture medium at the density of 40,000 cells/well and 5,000cells/well for HBV inhibitory activity and cytotoxicity determination, respectively. After incubation at 37° C., 5% CO2 overnight, cells were treated with medium containing compounds for 6 days with medium and compounds refreshed after 3 days of treatment. Each compound was tested in a 1:3 serial dilutions at 8 different concentrations in triplicate. The highest concentration of the compounds was 10 uM or 1 uM for anti-HBV activity assay and 100 uM for cytotoxicity determination.
Cell viability was determined by CCK-8 assay. After 6 days of compounds treatment, 20 μl CCK-8 reagents were added to each well of cytotoxicity assay plates. Cell plates were incubated at 37° C., 5% CO2 for 2.5 h. The absorbance at 450 nm wavelength and the absorbance at 630 nm wavelength as reference was measured.
(§3) EC50 and CC50 values are calculated by the […] PRISM software.

In series [2] the test system is HBV. Kind of series: Anti-viral assay in HepG2.2.15 cells: anti-HBV activity, HBV DNA in culture medium by qPCR. The note with it: HepG2.2.15 cells, 6 days treatment, HBV DNA by qPCR, read-out: EC50. In kind it is cell-based. The protocol: as §1, §2
The change of HBV DNA level induced by the compounds was assessed by quantitative real-time polymerase chain reaction (qPCR). Briefly, the HBV DNA in the culture medium was extracted using QIAamp 96 DNA Blood Kit according to the manual and then quantified by real-time PCR assay using the primers and probe in the table 1 below.
as §3
(Real-time PCR tracks product formation cycle by cycle.)

Where [3] appears, read: Hepatitis B virus, HepG2.2.15, 144 h.

As a reminder, the CC50 is the concentration that lowers cell viability or growth by half. A higher CC50 goes with lower toxicity to the cells. Broadly, the EC50 is the concentration giving half of the maximal effect. Compound `CCOC(=O)C1=C(CN2CCN3C(=S)N(CC(C)(C)C(=O)O)C[C@@H]3C2)NC(c2nccs2)=N[C@H]1c1ccc(F)cc1Cl` (single isomer, unassigned) [Compound 21A, 3-(7-((6-(2-chloro-4-fluorophenyl)-5-(ethoxycarbonyl)-2-(thiazol-2-yl)-3,6-dihydropyrimidin-4-yl)methyl)-3-thioxohexahydroimidazo[1,5-a]pyrazin-2(3H)-yl)-2,2-dimethylpropanoic acid] displayed a CC50 at 6 days in series [1] of 15.2 µM. In addition, the EC50 in series [2] (setting [3]) was 0.006 µM.
The corresponding values for `CCOC(=O)C1=C(CN2CCN3C(=S)N(CC(C)(C)C(=O)O)CC[C@H]3C2)NC(c2nccs2)=N[C@H]1c1cccc(F)c1C` [Compound 6, 3-((S)-2-(((S)-5-(ethoxycarbonyl)-6-(3-fluoro-2-methylphenyl)-2-(thiazol-2-yl)-3,6-dihydropyrimidin-4-yl)methyl)-6-thioxohexahydro-2H-pyrazino[1,2-c]pyrimidin-7(6H)-yl)-2,2-dimethylpropanoic acid] are 20.5 µM and 0.067 µM.
The corresponding values for `CCOC(=O)C1=C(CN2CCN3C(=S)N(CC(C)C(=O)O)C[C@@H]3C2)NC(c2nccs2)=N[C@H]1c1cccc(F)c1C` (single isomer, unassigned) [Compound 27A] are 23.6 µM and 0.0048 µM.
`CCOC(=O)C1=C(CN2CCN3C(=S)N(C(C)(C)CC(=O)O)CC3C2)NC(c2nccs2)=N[C@H]1c1cccc(F)c1C` (single isomer, unassigned) [Compound 30A]: the CC50 at 6 days in series [1] was found to be 8.6 µM. The EC50 in series [2] (setting [3]) was determined as 0.005 µM.
The corresponding values for `CCOC(=O)C1=C(CN2CCN3C(=S)N(CC(C)(C)C(=O)O)CC[C@@H]3C2)NC(c2nccs2)=N[C@H]1c1cccc(F)c1C` [Compound 6A, 3-((R)-2-(((S)-5-(ethoxycarbonyl)-6-(3-fluoro-2-methylphenyl)-2-(thiazol-2-yl)-3,6-dihydropyrimidin-4-yl)methyl)-6-thioxohexahydro-2H-pyrazino[1,2-c]pyrimidin-7(6H)-yl)-2,2-dimethylpropanoic acid] are 11.4 µM and 0.0194 µM.
In series [1], `CCOC(=O)C1=C(CN2CCN3C(=S)N(CC(C)(C)C(=O)O)CC3C2)NC(c2ncoc2C)=NC1c1cccc(F)c1C` (single isomer, unassigned) [Compound 26A, 3-(7-((5-(Ethoxycarbonyl)-6-(3-fluoro-2-methylphenyl)-2-(5-methyloxazol-4-yl)-3,6-dihydropyrimidin-4-yl)methyl)-3-thioxohexahydroimidazo[1,5-a]pyrazin-2(3H)-yl)-2,2-dimethylpropanoic acid] registered a CC50 at 6 days of 26.2 µM. In series [2] (setting [3]), the EC50 was determined as 0.0132 µM.
`CCOC(=O)C1=C(CN2CCN3C(=CC#N)N(CC(C)(C)C(=O)O)CC3C2)NC(c2nccs2)=N[C@H]1c1cccc(F)c1C` (stereo partly drawn) [Compound 7, 3-(3-(Cyanomethylene)-7-(((S)-5-(ethoxycarbonyl)-6-(3-fluoro-2-methylphenyl)-2-(thiazol-2-yl)-3,6-dihydropyrimidin-4-yl)methyl)hexahydroimidazo[1,5-a]pyrazin-2(3H)-yl)-2,2-dimethylpropanoic acid] displayed a CC50 at 6 days in series [1] of 68.7 µM. In addition, the EC50 in series [2] (setting [3]) was determined as 0.72 µM.
`CCOC(=O)C1=C(CN2CCN3C(=S)N(CC(C)(C)C(=O)O)C[C@@H]3C2)NC(c2nccs2)=N[C@@H]1c1ccc(F)c(F)c1C` (single isomer, unassigned) [Compound 15A, 3-(7-((6-(3,4-Difluoro-2-methylphenyl)-5-(ethoxycarbonyl)-2-(thiazol-2-yl)-3,6-dihydropyrimidin-4-yl)methyl)-3-thioxohexahydroimidazo[1,5-a]pyrazin-2(3H)-yl)-2,2-dimethylpropanoic acid] displayed a 50% cytotoxic concentration (CC50) at 6 days in series [1] of 25.6 µM. In series [2] (setting [3]), the EC50 amounted to 0.0046 µM.
Taken in the same sequence, the figures for `[2H][C@@]1(c2cccc(F)c2C)N=C(c2nccs2)NC(CN2CCN3C(=S)N(CC(C)(C)C(=O)O)C[C@@H]3C2)=C1C(=O)OCC` (single isomer, unassigned) [Compound 36B, 3-(7-((6-Deutero-5-(ethoxycarbonyl)-6-(3-fluoro-2-methylphenyl)-2-(thiazol-2-yl)-3,6-dihydropyrimidin-4-yl)methyl)-3-thioxohexahydroimidazo[1,5-a]pyrazin-2(3H)-yl)-2,2-dimethylpropanoic acid] were 23 µM and 0.0026 µM.
Compound `CCOC(=O)C1=C(CN2CCN3C(=S)N(CC4(C(=O)O)CC4)CC3C2)NC(c2nccs2)=N[C@H]1c1cccc(F)c1C` (single isomer, unassigned) [Compound 9A] yielded a CC50 at 6 days in series [1] of 14.9 µM. In addition, in series [2], the EC50 amounted to 0.064 µM.
`CCOC(=O)C1=C(CN2CCN3C(=S)N(CC(C)(C)C(=O)O)CC3C2)NC(c2nccs2)=NC1c1cccc(F)c1Cl` (single isomer, unassigned) [Compound 3A, 3-(7-((6-(2-chloro-3-fluorophenyl)-5-(ethoxycarbonyl)-2-(thiazol-2-yl)-3,6-dihydropyrimidin-4-yl)methyl)-3-thioxohexahydroimidazo[1,5-a]pyrazin-2(3H)-yl)-2,2-dimethylpropanoic acid] came in with a CC50 at 6 days in series [1] of 25.2 µM. Also, the EC50 in series [2] is 0.019 µM.
Turning to `CCOC(=O)C1=C(CN2CCN3C(=S)N(CC(C)(C)C(=O)O)CC3C2)NC(c2nccs2)=NC1c1ccc(F)cc1Br` (single isomer, unassigned) [Compound 13A, 3-(7-((6-(2-Bromo-4-fluorophenyl)-5-(ethoxycarbonyl)-2-(thiazol-2-yl)-3,6-dihydropyrimidin-4-yl)methyl)-3-thioxohexahydroimidazo[1,5-a]pyrazin-2(3H)-yl)-2,2-dimethylpropanoic acid], half-maximal cytotoxicity in series [1] (CC50 at 6 days) was put at 14.7 µM. In series [2] (setting [3]), the concentration giving a half-maximal response (EC50) is 0.001 µM.
Taken in the same sequence, the figures for `CCOC(=O)C1=C(CN2CCN3C(=S)N(CC(C)(C)C(=O)O)C[C@@H]3C2)NC(c2ncoc2C)=N[C@H]1c1ccc(F)cc1Cl` (single isomer, unassigned) [Compound 33A, 3-(7-((6-(2-Chloro-4-fluorophenyl)-5-(ethoxycarbonyl)-2-(5-methyloxazol-4-yl)-3,6-dihydropyrimidin-4-yl)methyl)-3-thioxohexahydroimidazo[1,5-a]pyrazin-2(3H)-yl)-2,2-dimethylpropanoic acid] were 37.8 µM and 0.012 µM.
Compound `COC(=O)C1=C(CN2CCN3C(=S)N(CC(C)(C)C(=O)O)C[C@@H]3C2)NC(c2nccs2)=N[C@H]1c1ccc(F)cc1Br` (single isomer, unassigned) [Compound 16B, 3-(7-((6-(2-Bromo-4-fluorophenyl)-5-(methoxycarbonyl)-2-(thiazol-2-yl)-3,6-dihydropyrimidin-4-yl)methyl)-3-thioxohexahydroimidazo[1,5-a]pyrazin-2(3H)-yl)-2,2-dimethylpropanoic acid] returned a CC50 at 6 days in series [1] of 29.5 µM. Further, the EC50 in series [2] (setting [3]) came out at 0.808 µM.
The corresponding values for `COC(=O)C1=C(CN2CCN3C(=S)N(CC(C)(C)C(=O)O)CC3C2)NC(c2ncoc2C)=NC1c1cccc(F)c1C` (single isomer, unassigned) [Compound 31A, 3-(7-((6-(3-Fluoro-2-methylphenyl)-5-(methoxycarbonyl)-2-(5-methyloxazol-4-yl)-3,6-dihydropyrimidin-4-yl)methyl)-3-thioxohexahydroimidazo[1,5-a]pyrazin-2(3H)-yl)-2,2-dimethylpropanoic acid] are 43.7 µM and 0.015 µM.
